One experiment deals with Mcl-1 (Homo sapiens (Human), UniProt Q07820). The experiment can be described thus: TR-FRET binding assay, FITC-Bak peptide and MBP-tagged Mcl-1. The settings on record: read-out: Ki for Inhibition of Mcl-1 by TR-FRET assay. As for the experimental part:
Compounds are diluted in DMSO in a 16-point, semilog serial dilution scheme. […] The plate was mixed and incubated for 3 hours at room temperature. […] TR-FRET signal is plotted and IC50 and Ki values are calculated in the same manner as the fluorescence polarization anisotropy based competition assays.
Background: Time-resolved FRET reads energy transfer from a long-lived donor to a nearby acceptor.

For experiment [1], the system named is H929 human cancer cell lines. In words: Cellular viability / proliferation (Cell TiterGlo, 72 h). Type of experiment: cell-based. The settings on record: Homo sapiens, NCI-H929, 72 h, read-out: GI50 on cellular proliferation of H929 human cancer cell lines, H929 cells, 72 h, Cell TiterGlo, 10% FBS. The method, boiled down:
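Cells were seeded at 1,000 cells/well in medium with 10% FBS and dosed 24 h later with a 2-fold serial dilution of compound (top concentration 50 μM, final DMSO <1%).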
A general note: Cellular ATP, detected with luciferase, serves as a proxy for viable cell number.

Molecules are shown by their SMILES.

Sequence of Mcl-1 (Q07820 172-327): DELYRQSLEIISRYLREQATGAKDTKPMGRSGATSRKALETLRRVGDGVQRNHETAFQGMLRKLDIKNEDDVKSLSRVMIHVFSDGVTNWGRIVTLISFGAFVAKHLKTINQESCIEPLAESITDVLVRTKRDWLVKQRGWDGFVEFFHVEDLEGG

Usually Ki stands for a dissociation constant, usually derived from enzyme kinetics or from competition with a known ligand. Consider `Cc1cc(OCCCc2c3n(c4c(-c5c(C)nn(C)c5C)c(Cl)ccc24)[C@H](C)CN(c2cc(COCCN4CCOCC4)cc4cc(C(=O)O)n(C)c24)C3=O)cc(C)c1Cl` [Example 693, (R)-7-(7-chloro-10-(3-(4-chloro-3,5-dimethylphenoxy)propyl)-4-methyl-1-oxo-6-(1,3,5-trimethyl-1H-pyrazol-4-yl)-3,4-dihydropyrazino[1,2-a]indol-2(1H)-yl)-1-methyl-5-((2-morpholinoethoxy)methyl)-1H-indole-2-carboxylic acid], for which the Ki at Mcl-1 is less than 0.0002 µM. In addition, the GI50 in experiment [1] came to 0.21 µM.

As for `Cc1cc(OCCCc2c3n(c4c(-c5c(C)nn(C)c5C)c(Cl)ccc24)[C@H](C)CN(c2cn(C[C@H]4CCCN4C)c4ccc(C(=O)O)cc24)C3=O)cc(C)c1Cl` [Example 694, 3-((R)-7-chloro-10-(3-(4-chloro-3,5-dimethylphenoxy)propyl)-4-methyl-1-oxo-6-(1,3,5-trimethyl-1H-pyrazol-4-yl)-3,4-dihydropyrazino[1,2-a]indol-2(1H)-yl)-1-(((R)-1-methylpyrrolidin-2-yl)methyl)-1H-indole-5-carboxylic acid], at Mcl-1, the Ki was less than 0.0002 µM. Also, the GI50 in experiment [1] worked out at 0.32 µM.

Take `COCc1cccn2nc(-c3ccc4c(c3)c(N3C[C@@H](C)n5c(c(CCCOc6cc(C)c(Cl)c(C)c6)c6ccc(Cl)c(-c7c(C)nn(C)c7C)c65)C3=O)cn4C)nc12` [Example 695, (R)-7-Chloro-10-(3-(4-chloro-3,5-dimethylphenoxy)propyl)-2-(5-(8-(methoxymethyl)-[1,2,4]triazolo[1,5-a]pyridin-2-yl)-1-methyl-1H-indol-3-yl)-4-methyl-6-(1,3,5-trimethyl-1H-pyrazol-4-yl)-3,4-dihydropyrazino[1,2-a]indol-1(2H)-one]: on Mcl-1, the Ki was 0.00057 µM. For the same molecule, the GI50 in experiment [1] was determined as 0.28 µM.

Turning to `Cc1cc(OCCCc2c3n(c4c(-c5c(C)nn(C)c5C)c(Cl)ccc24)[C@H](C)CN(c2cn(C)c4ccc(-c5nc6cccc(C)n6n5)cc24)C3=O)cc(C)c1Cl` [Example 696, (R)-7-Chloro-10-(3-(4-chloro-3,5-dimethylphenoxy)propyl)-4-methyl-2-(1-methyl-5-(5-methyl-[1,2,4]triazolo[1,5-a]pyridin-2-yl)-1H-indol-3-yl)-6-(1,3,5-trimethyl-1H-pyrazol-4-yl)-3,4-dihydropyrazino[1,2-a]indol-1(2H)-one], the Ki at Mcl-1 stood at 0.0011 µM. Also, in experiment [1], the GI50 turned out to be 1.4 µM.

In the case of `Cc1cc(OCCCc2c3n(c4c(-c5c(C)nn(C)c5C)c(Cl)ccc24)[C@H](C)CN(c2cc(C(=O)O)cc4cc(C(=O)O)n(C)c24)C3=O)cc(C)c1Cl` [Example 697, (R)-7-(7-chloro-10-(3-(4-chloro-3,5-dimethylphenoxy)propyl)-4-methyl-1-oxo-6-(1,3,5-trimethyl-1H-pyrazol-4-yl)-3,4-dihydropyrazino[1,2-a]indol-2(1H)-yl)-1-methyl-1H-indole-2,5-dicarboxylic acid], the Ki at Mcl-1 was less than 0.0002 µM. The GI50 in experiment [1] came to 2 µM.

Take `Cc1cc(OCCCc2c3n(c4c(-c5c(C)nn(C)c5C)c(Cl)ccc24)[C@H](C)CN(c2cn(C)c4ccc(-c5nc6c(C)cccn6n5)cc24)C3=O)cc(C)c1Cl` [Example 698, (R)-7-Chloro-10-(3-(4-chloro-3,5-dimethylphenoxy)propyl)-4-methyl-2-(1-methyl-5-(8-methyl-[1,2,4]triazolo[1,5-a]pyridin-2-yl)-1H-indol-3-yl)-6-(1,3,5-trimethyl-1H-pyrazol-4-yl)-3,4-dihydropyrazino[1,2-a]indol-1(2H)-one]: the inhibitory constant (Ki) at Mcl-1 was 0.0018 µM. Moreover, in experiment [1], the GI50 was determined as 0.62 µM.

For the molecule `COCCOCc1cccn2nc(-c3ccc4c(c3)c(N3C[C@@H](C)n5c(c(CCCOc6cc(C)c(Cl)c(C)c6)c6ccc(Cl)c(-c7c(C)nn(C)c7C)c65)C3=O)cn4C)nc12` [Example 699, (R)-7-Chloro-10-(3-(4-chloro-3,5-dimethylphenoxy)propyl)-2-(5-(8-((2-methoxyethoxy)methyl)-[1,2,4]triazolo[1,5-a]pyridin-2-yl)-1-methyl-1H-indol-3-yl)-4-methyl-6-(1,3,5-trimethyl-1H-pyrazol-4-yl)-3,4-dihydropyrazino[1,2-a]indol-1(2H)-one], the Ki at Mcl-1 worked out at 0.0012 µM. Also, the GI50 in experiment [1] was 0.35 µM.

`Cc1cnc(-n2cnc(-c3ccc4c(c3)c(N3C[C@@H](C)n5c(c(CCCOc6cc(C)c(Cl)c(C)c6)c6ccc(Cl)c(-c7c(C)nn(C)c7C)c65)C3=O)cn4C)n2)nc1` [Example 700, (R)-7-Chloro-10-(3-(4-chloro-3,5-dimethylphenoxy)propyl)-4-methyl-2-(1-methyl-5-(1-(5-methylpyrimidin-2-yl)-1H-1,2,4-triazol-3-yl)-1H-indol-3-yl)-6-(1,3,5-trimethyl-1H-pyrazol-4-yl)-3,4-dihydropyrazino[1,2-a]indol-1(2H)-one]: the Ki on Mcl-1 amounted to 0.00073 µM. Also, in experiment [1], the GI50 came to 0.38 µM.

With `Cc1cc(OCCCc2c3n(c4c(-c5c(C)nn(C)c5C)c(Cl)ccc24)[C@H](C)CN(c2cc(CCN4CCOCC4)cc4cc(C(=O)O)n(C)c24)C3=O)cc(C)c1Cl` [Example 715, (R)-7-(7-chloro-10-(3-(4-chloro-3,5-dimethylphenoxy)propyl)-4-methyl-1-oxo-6-(1,3,5-trimethyl-1H-pyrazol-4-yl)-3,4-dihydropyrazino[1,2-a]indol-2(1H)-yl)-1-methyl-5-(2-morpholinoethyl)-1H-indole-2-carboxylic acid], the Ki on Mcl-1 is less than 0.0002 µM. Besides, the GI50 in experiment [1] was less than 0.2 µM.

On to `COCCOc1cc(N2C[C@@H](C)n3c(c(CCCOc4cc(C)c(Cl)c(C)c4)c4ccc(Cl)c(-c5c(C)n[nH]c5C)c43)C2=O)c2c(c1)cc(C(=O)O)n2C` [Example 716, (R)-7-(7-chloro-10-(3-(4-chloro-3,5-dimethylphenoxy)propyl)-6-(3,5-dimethyl-1H-pyrazol-4-yl)-4-methyl-1-oxo-3,4-dihydropyrazino[1,2-a]indol-2(1H)-yl)-5-(2-methoxyethoxy)-1-methyl-1H-indole-2-carboxylic acid], for which the Ki on Mcl-1 is less than 0.0002 µM. Further, in experiment [1], the GI50 turned out to be 0.55 µM.

As for `COCCn1c(C(=O)O)cc2cc(C)cc(N3C[C@@H](C)n4c(c(CCCOc5cc(C)c(Cl)c(C)c5)c5ccc(Cl)c(-c6c(C)nc(CN7CCOCC7)nc6C)c54)C3=O)c21` [Example 717, (R)-7-(7-chloro-10-(3-(4-chloro-3,5-dimethylphenoxy)propyl)-6-(4,6-dimethyl-2-(morpholinomethyl)pyrimidin-5-yl)-4-methyl-1-oxo-3,4-dihydropyrazino[1,2-a]indol-2(1H)-yl)-1-(2-methoxyethyl)-5-methyl-1H-indole-2-carboxylic acid], the Ki at Mcl-1 is less than 0.0002 µM. Further, the GI50 in experiment [1] is less than 0.2 µM.

For the molecule `COCCn1c(C(=O)O)cc2cc(C)cc(N3C[C@@H](C)n4c(c(CCCOc5cc(C)c(Cl)c(C)c5)c5ccc(Cl)c(-c6c(C)n[nH]c6C)c54)C3=O)c21` [Example 718, (R)-7-(7-chloro-10-(3-(4-chloro-3,5-dimethylphenoxy)propyl)-6-(3,5-dimethyl-1H-pyrazol-4-yl)-4-methyl-1-oxo-3,4-dihydropyrazino[1,2-a]indol-2(1H)-yl)-1-(2-methoxyethyl)-5-methyl-1H-indole-2-carboxylic acid], the Ki at Mcl-1 is less than 0.0002 µM. The GI50 in experiment [1] was 0.41 µM.

For `Cc1cc(N2C[C@@H](C)n3c(c(CCCOc4cc(C)c(Cl)c(C)c4)c4ccc(Cl)c(-c5c(C)n[nH]c5C)c43)C2=O)c2c(c1)cc(C(=O)O)n2Cc1ccccn1` [Example 719, (R)-7-(7-chloro-10-(3-(4-chloro-3,5-dimethylphenoxy)propyl)-6-(3,5-dimethyl-1H-pyrazol-4-yl)-4-methyl-1-oxo-3,4-dihydropyrazino[1,2-a]indol-2(1H)-yl)-5-methyl-1-(pyridin-2-ylmethyl)-1H-indole-2-carboxylic acid], the Ki at Mcl-1 was less than 0.0002 µM. Besides, in experiment [1], the GI50 is 0.64 µM.

Turning to `Cc1cc(OCCCc2c3n(c4c(-c5c(C)nn(C)c5C)c(Cl)ccc24)[C@H](C)CN(c2cn(CCN4CCOCC4)c4ccc(-c5ncn(-c6ncccn6)n5)cc24)C3=O)cc(C)c1Cl` [Example 720, (R)-7-Chloro-10-(3-(4-chloro-3,5-dimethylphenoxy)propyl)-4-methyl-2-(1-(2-morpholinoethyl)-5-(1-(pyrimidin-2-yl)-1H-1,2,4-triazol-3-yl)-1H-indol-3-yl)-6-(1,3,5-trimethyl-1H-pyrazol-4-yl)-3,4-dihydropyrazino[1,2-a]indol-1(2H)-one], the Ki on Mcl-1 was 0.00051 µM. The GI50 in experiment [1] was found to be 0.22 µM.

Regarding `COCCn1cnc(-c2ccc3c(c2)c(N2C[C@@H](C)n4c(c(CCCOc5cc(C)c(Cl)c(C)c5)c5ccc(Cl)c(-c6c(C)nc(CN7CCN(C)C(=O)C7)nc6C)c54)C2=O)cn3CCN2CCOCC2)n1` [Example 722, (R)-7-Chloro-10-(3-(4-chloro-3,5-dimethylphenoxy)propyl)-6-(4,6-dimethyl-2-((4-methyl-3-oxopiperazin-1-yl)methyl)pyrimidin-5-yl)-2-(5-(1-(2-methoxyethyl)-1H-1,2,4-triazol-3-yl)-1-(2-morpholinoethyl)-1H-indol-3-yl)-4-methyl-3,4-dihydropyrazino[1,2-a]indol-1(2H)-one], the Ki on Mcl-1 came to 0.0031 µM. In addition, the GI50 in experiment [1] was less than 0.2 µM.

Turning to `Cc1cc(OCCCc2c3n(c4c(-c5c(C)nn(C)c5C)c(Cl)ccc24)[C@H](C)CN(c2cc(CCN4CCCCC4)cc4cc(C(=O)O)n(C)c24)C3=O)cc(C)c1Cl` [Example 723, (R)-7-(7-chloro-10-(3-(4-chloro-3,5-dimethylphenoxy)propyl)-4-methyl-1-oxo-6-(1,3,5-trimethyl-1H-pyrazol-4-yl)-3,4-dihydropyrazino[1,2-a]indol-2(1H)-yl)-1-methyl-5-(2-(piperidin-1-yl)ethyl)-1H-indole-2-carboxylic acid], the Ki on Mcl-1 was less than 0.0002 µM. Further, the GI50 in experiment [1] is less than 0.2 µM.
